A word on the IC50: it is the concentration needed to halve the response being measured.

The results in this text go back to US8895551B2, “Acrylamide compounds and the use thereof” (Shionogi & Co., Ltd., priority 2009, dated 2014).

SMILES strings stand for the structures.

T1 sequence (Q00975 whole entry): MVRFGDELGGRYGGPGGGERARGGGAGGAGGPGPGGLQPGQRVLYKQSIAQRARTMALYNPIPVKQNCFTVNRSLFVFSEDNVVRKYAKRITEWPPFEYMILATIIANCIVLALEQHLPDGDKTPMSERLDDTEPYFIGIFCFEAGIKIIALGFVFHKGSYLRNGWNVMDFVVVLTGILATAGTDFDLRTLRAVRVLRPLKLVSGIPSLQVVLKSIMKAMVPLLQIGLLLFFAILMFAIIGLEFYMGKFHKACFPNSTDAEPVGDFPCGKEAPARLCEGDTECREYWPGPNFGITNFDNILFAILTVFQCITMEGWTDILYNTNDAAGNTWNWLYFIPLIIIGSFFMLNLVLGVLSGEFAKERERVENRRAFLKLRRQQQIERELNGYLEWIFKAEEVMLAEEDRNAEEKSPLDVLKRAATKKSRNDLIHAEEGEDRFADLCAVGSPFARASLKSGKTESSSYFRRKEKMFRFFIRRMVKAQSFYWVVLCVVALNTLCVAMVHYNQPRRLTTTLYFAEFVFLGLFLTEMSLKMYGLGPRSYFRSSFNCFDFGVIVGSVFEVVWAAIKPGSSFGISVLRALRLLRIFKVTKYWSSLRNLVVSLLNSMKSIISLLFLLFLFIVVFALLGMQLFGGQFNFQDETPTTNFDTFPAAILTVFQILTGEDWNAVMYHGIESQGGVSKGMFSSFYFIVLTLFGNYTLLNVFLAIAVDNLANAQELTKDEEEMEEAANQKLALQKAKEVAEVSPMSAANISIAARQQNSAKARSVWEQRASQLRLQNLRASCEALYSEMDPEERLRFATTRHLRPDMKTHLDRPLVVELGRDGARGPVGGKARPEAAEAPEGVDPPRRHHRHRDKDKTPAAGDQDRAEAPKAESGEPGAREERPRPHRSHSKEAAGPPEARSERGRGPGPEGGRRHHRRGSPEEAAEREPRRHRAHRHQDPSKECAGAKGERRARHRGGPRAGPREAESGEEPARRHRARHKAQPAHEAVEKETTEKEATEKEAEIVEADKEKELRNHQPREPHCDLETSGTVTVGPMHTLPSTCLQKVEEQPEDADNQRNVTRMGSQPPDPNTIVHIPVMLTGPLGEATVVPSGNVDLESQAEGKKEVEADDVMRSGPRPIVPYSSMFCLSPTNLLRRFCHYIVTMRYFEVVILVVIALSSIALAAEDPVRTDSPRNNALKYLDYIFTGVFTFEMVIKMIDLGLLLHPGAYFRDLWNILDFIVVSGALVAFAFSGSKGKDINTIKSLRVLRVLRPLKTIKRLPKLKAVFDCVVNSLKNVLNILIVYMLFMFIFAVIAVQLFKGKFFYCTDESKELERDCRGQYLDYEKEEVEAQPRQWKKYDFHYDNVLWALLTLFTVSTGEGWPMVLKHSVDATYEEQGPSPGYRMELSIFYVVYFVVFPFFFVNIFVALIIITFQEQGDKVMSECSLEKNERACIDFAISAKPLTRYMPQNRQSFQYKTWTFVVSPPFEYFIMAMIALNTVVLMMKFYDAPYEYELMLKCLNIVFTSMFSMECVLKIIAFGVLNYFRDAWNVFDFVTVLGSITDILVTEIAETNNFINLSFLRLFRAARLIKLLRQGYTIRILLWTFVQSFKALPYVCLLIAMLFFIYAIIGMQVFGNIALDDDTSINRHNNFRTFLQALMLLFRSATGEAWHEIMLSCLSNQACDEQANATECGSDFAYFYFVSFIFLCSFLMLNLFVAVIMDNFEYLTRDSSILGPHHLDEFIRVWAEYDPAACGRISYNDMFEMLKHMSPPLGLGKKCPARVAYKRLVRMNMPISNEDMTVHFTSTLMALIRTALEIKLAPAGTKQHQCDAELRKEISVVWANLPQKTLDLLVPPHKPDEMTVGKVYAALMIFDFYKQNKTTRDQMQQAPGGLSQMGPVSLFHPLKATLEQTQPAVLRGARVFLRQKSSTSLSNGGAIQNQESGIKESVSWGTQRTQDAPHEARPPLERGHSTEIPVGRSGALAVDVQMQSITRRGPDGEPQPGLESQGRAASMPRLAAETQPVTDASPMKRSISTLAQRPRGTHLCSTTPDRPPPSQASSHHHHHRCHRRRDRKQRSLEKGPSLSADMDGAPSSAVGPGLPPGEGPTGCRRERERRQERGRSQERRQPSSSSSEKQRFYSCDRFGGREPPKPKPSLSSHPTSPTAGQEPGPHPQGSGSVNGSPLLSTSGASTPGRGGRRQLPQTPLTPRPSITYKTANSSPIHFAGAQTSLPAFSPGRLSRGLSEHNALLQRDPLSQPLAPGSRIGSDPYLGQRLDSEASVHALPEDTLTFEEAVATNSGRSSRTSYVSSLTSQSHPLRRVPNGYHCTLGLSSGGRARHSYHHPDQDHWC
T1 sequence (P54289 25-956 partner limits assumed): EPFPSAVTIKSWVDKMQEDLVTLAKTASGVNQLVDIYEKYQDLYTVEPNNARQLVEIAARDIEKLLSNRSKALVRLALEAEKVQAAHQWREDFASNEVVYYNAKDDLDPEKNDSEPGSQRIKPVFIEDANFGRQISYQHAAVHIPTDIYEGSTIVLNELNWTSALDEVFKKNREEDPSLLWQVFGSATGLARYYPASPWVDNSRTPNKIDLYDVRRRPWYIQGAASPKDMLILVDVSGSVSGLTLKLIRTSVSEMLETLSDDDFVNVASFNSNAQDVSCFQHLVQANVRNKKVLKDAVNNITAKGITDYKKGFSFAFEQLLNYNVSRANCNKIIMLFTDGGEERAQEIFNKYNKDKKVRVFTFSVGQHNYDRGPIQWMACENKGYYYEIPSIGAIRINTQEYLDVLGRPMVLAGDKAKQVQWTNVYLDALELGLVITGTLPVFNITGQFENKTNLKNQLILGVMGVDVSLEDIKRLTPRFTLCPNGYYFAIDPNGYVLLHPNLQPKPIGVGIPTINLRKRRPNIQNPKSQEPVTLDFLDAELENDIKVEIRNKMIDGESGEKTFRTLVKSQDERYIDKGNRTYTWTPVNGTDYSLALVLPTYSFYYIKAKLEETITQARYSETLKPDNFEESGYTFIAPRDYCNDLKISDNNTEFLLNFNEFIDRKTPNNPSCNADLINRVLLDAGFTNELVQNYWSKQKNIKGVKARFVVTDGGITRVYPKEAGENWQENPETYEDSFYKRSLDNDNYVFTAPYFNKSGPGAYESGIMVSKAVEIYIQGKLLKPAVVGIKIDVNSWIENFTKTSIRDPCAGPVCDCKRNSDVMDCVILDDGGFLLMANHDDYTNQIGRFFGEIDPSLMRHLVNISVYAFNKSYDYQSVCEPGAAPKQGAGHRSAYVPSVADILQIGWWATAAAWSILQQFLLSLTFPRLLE
T1 sequence (P54289 957-1103 partner limits assumed): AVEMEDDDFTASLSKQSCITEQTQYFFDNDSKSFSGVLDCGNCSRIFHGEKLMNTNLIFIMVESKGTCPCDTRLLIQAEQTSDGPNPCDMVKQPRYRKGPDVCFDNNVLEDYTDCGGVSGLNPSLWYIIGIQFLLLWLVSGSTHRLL
T1 sequence (P54284 whole entry partner): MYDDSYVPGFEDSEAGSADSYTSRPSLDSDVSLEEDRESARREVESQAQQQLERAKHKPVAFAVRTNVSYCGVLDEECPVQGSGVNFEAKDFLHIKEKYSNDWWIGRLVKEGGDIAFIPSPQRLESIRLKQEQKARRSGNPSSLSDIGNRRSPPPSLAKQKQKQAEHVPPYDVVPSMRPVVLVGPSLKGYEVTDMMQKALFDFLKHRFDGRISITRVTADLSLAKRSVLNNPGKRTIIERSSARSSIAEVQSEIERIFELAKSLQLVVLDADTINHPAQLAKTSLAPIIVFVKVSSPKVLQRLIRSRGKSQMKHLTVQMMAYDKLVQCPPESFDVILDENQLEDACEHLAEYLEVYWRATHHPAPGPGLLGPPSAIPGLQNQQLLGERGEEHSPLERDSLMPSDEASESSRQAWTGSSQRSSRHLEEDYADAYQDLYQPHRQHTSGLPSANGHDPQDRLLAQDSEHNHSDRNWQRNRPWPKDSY

This assay has as its target T1, N-type calcium channel (NTCC) (Homo sapiens, UniProt Q00975).
T1 construct: host or cells: IMR32 cells differentiated with dibutyryl cyclic AMP and bromodeoxyuridine
The experiment in a line: FLIPR calcium mobilization assay for N-type calcium channel. The class given is cell-based. As to conditions: N-type calcium channel (NTCC) blockers after a calcium mobilization in vitro assay; differentiated IMR32 cells. As for the experimental part: Cell maintenance and differentiation. Unless noted otherwise, cell culture reagents were purchased from Mediatech of Herndon, Md. IMR32 cells (American Type Culture Collection, ATCC, Manassas, Va.) were routinely cultured in growth medium consisting of minimum essential medium containing 10% fetal bovine serum (FBS, Hyclone, Logan, Utah), 100 U/mL penicillin, 100 μg/mL streptomycin, 2 mM L-glutamine, 1 mM sodium pyruvate, and 1×MEM non-essential amino acids. 80-90% confluent flasks of cells were differentiated using the following differentiation medium: Growth medium plus 1 mM dibutyryl cyclic AMP (Sigma, St. Louis, Mo.), and 2.5 μM bromodeoxyuridine (Sigma). Cells were differentiated for 8 days by replacing differentiation medium every 2-3 days.
FLIPR Calcium Mobilization Assay for N-type Calcium Channel. One day prior to performing this assay, differentiated IMR32 cells were treated with 1× CellStripper, and seeded on poly-D-lysine-coated 96-well clear-bottom black plates (Becton Dickinson, Franklin Lakes, N.J.) at 200,000 cells/well. On the day of the assay, the cell plates were washed with IMR32 buffer (127 mM NaCl, 1 mM KCl, 2 mM MgCl2, 700 μM NaH2PO4, 5 mM CaCl2, 5 mM NaHCO3, 8 mM HEPES, 10 mM glucose, pH 7.4), then pre-stimulated with KCl and loaded as follows: 0.05 mL of IMR^32 buffer, 0.05 mL of each compound tested diluted in IMR^32 buffer containing 20 μM nitrendipine (Sigma), and 0.1 mL KCl dissolved in IMR^32 buffer, plus Fluo-4 were added (3 μM final concentration, Molecular Probes, Eugene, Oreg.). Final test compound concentrations ranged from about 846 μM to about 17 μM, final nitrendipine concentration was 5 μM, and final KCl concentration was 90 mM. After 1 hour, the cells were washed twice with 0.05 mL of each compound tested in nitrendipine-containing IMR32 buffer (no KCl or Fluo-4), and then replaced with 0.1 mL of each compound tested in nitrendipine-containing IMR^32 buffer. Plates were then transferred to a Fluorimetric Imaging Plate Reader (FLIPR^96, Molecular Devices, Inc., Sunnyvale, Calif.) for assay. The FLIPR measured basal Fluo-4 fluorescence for 315 seconds (i.e., 5 minutes and 15 seconds), then added 0.1 mL KCl agonist dissolved in IMR32 buffer and measured fluorescence for another 45 seconds. Final test compound concentrations on the cells after FLIPR read ranged from about 846 μM to about 17 μM, final nitrendipine concentration was 5 μM, and final KCl concentration was 90 mM. Data were collected over the entire time course and analyzed using Excel, Graph Pad Prism (version 3.02, Graph Pad, San Diego, Calif.), or an in-house non-linear regression analysis software.
For `O=C(/C=C1\CCCN(S(=O)(=O)c2ccc(OC(F)(F)F)cc2)C1)NC1CC1` [Example 41, (E)-N-cyclopropyl-2-(1-(4-(trifluoromethoxy)phenylsulfonyl)piperidin-3-ylidene)acetamide], the IC50 is 0.99 µM.
In the case of `COC(=O)C(NC(=O)C=C1CCN(S(=O)(=O)c2ccc(OC(F)(F)F)cc2)CC1)c1ccc(F)cc1` (centres unmarked) [Example 19, methyl 2-(4-fluorophenyl)-2-(2-(1-(4-(trifluoromethoxy)phenylsulfonyl)piperidin-4-ylidene)acetamido)Acetate], the IC50 was found to be 0.865 µM.
Regarding `CC(C)(c1cccc(C(F)(F)F)c1)N1CCC(=CC(=O)NCC2CC2)CC1` [Example 31, N-(cyclopropylmethyl)-2-(1-(2-(3-(trifluoromethyl)phenyl)propan-2-yl)piperidin-4-ylidene)acetamide], the IC50 stood at 0.681 µM.
On to `O=C(C=C1CCN(S(=O)(=O)c2ccc(OC(F)(F)F)cc2)CC1)NCCC1CC1` [Example 13, N-(2-cyclopropylethyl)-2-(1-(4-(trifluoromethoxy)phenylsulfonyl)piperidin-4-ylidene)Acetamide], for which the IC50 amounted to 0.248 µM.
With `O=C(C=C1CCN(S(=O)(=O)c2ccc(OC(F)(F)F)cc2)CC1)NCc1ccc(F)cc1` [Example 9, N-(4-fluorobenzyl)-2-(1-(4-(trifluoromethoxy)phenylsulfonyl)piperidin-4-ylidene)Acetamide], the IC50 worked out at 0.115 µM.
With `O=C(C=C1CCN(S(=O)(=O)c2ccc(OC(F)(F)F)cc2)CC1)NC1(c2ccc(F)cc2)CC1` [Example 12, N-(1-(4-fluorophenyl)cyclopropyl)-2-(1-(4-(trifluoromethoxy)phenylsulfonyl)piperidin-4-ylidene)Acetamide] the figure was 0.361 µM; with `O=C(/C=C1\CCCN(S(=O)(=O)c2ccc(OC(F)(F)F)cc2)C1)NCC1CC1` [Example 40, (E)-N-(cyclopropylmethyl)-2-(1-(4-(trifluoromethoxy)phenylsulfonyl)piperidin-3-ylidene)acetamide], 0.695 µM.
For `CN(Cc1ccc(F)cc1)C(=O)C=C1CCN(S(=O)(=O)c2ccc(OC(F)(F)F)cc2)CC1` [Example 10, N-(4-fluorobenzyl)-N-methyl-2-(1-(4-(trifluoromethoxy)phenylsulfonyl)piperidin-4-ylidene)Acetamide], the half-maximal inhibitory concentration (IC50) was determined as 0.161 µM.
Turning to `COC(C(=O)NCC1CC1)=C1CCN(S(=O)(=O)c2ccc(OC(F)(F)F)cc2)CC1` [Example 32, N-(cyclopropylmethyl)-2-methoxy-2-(1-(4-(trifluoromethoxy)phenylsulfonyl)piperidin-4-ylidene)acetamide], the IC50 came out at 0.912 µM.
For `CO/C(=C\C1CCN(S(=O)(=O)c2ccc(OC(F)(F)F)cc2)CC1)C(=O)NC1CC1` [Example 37, (Z)—N-cyclopropyl-2-methoxy-3-(1-(4-(trifluoromethoxy)phenylsulfonyl)piperidin-4-yl)acrylamide] the value was 0.555 µM; for `CO/C(=C/C1CCN(S(=O)(=O)c2ccc(OC(F)(F)F)cc2)CC1)C(=O)NC1CC1` [Example 38, (E)-N-cyclopropyl-2-methoxy-3-(1-(4-(trifluoromethoxy)phenylsulfonyl)piperidin-4-yl)acrylamide], 0.832 µM.
Consider `O=C(C=C1CCN(S(=O)(=O)c2ccc(OC(F)(F)F)cc2)CC1)NC(CO)c1ccc(F)cc1` (centres unmarked) [Example 20, N-(1-(4-fluorophenyl)-2-hydroxyethyl)-2-(1-(4-(trifluoromethoxy)phenylsulfonyl)piperidin-4-ylidene)acetamide], for which the IC50 worked out at 0.822 µM.
On to `CO/C(=C\C1CN(S(=O)(=O)c2ccc(OC(F)(F)F)cc2)CCO1)C(=O)NC1CC1` (centres unmarked) [Example 44, (Z)—N-cyclopropyl-2-methoxy-3-(4-(4-(trifluoromethoxy)phenylsulfonyl)morpholin-2-yl)acrylamide], for which the concentration for half-maximal inhibition (IC50) is 0.857 µM.
As for `CC(C)OCCNC(=O)C=C1CCN(S(=O)(=O)c2ccc(OC(F)(F)F)cc2)CC1` [Example 15, N-(2-isopropoxyethyl)-2-(1-(4-(trifluoromethoxy)phenylsulfonyl)piperidin-4-ylidene)Acetamide], the IC50 was found to be 0.718 µM.
For `O=C(C=C1CCN(S(=O)(=O)c2ccc(OC(F)(F)F)cc2)CC1)NCc1ccccc1` [Example 3, N-benzyl-2-(1-(4-(trifluoromethoxy)phenylsulfonyl)piperidin-4-ylidene)Acetamide] the value was 0.598 µM; for `O=C(C=C1CCN(S(=O)(=O)c2cccc(C(F)(F)F)c2)CC1)NCC1CC1` [Example 22, N-(cyclopropylmethyl)-2-(1-(3-(trifluoromethyl)phenylsulfonyl)piperidin-4-ylidene)acetamide], 0.829 µM.
As to `N#Cc1ccc(CNC(=O)C=C2CCN(S(=O)(=O)c3ccc(OC(F)(F)F)cc3)CC2)cc1` [Example 11, N-(4-cyanobenzyl)-2-(1-(4-(trifluoromethoxy)phenylsulfonyl)piperidin-4-ylidene)Acetamide], the IC50 worked out at 0.56 µM.
